Results reported in patent US6740645B1, “17β-acyl-17α-propynyl-11β-(cyclic amino) aryl steroids and their derivatives having antagonist hormonal properties” (Research Triangle Institute, priority 1999, dated 2004).

Tested on: rabbit uterus
Test: anti-McGinty test for antiprogestational activity (McPhail Index)
Type: in vivo
Settings: for McPhail Index: estrogen-primed immature female rabbits, n = 3
Protocol: Biological activity was examined by means of the anti-McGinty test for antiprogestational activity. Immature female rabbits weighing 1000 to 1100 grams were primed with estrogen (5 μg of estradiol in sesame oil as vehicle, given subcutaneously) for 6 days, followed by a surgical procedure to introduce the test compounds into the uterine horn [see for example Teruhiko Tamaya, et al., Local progestational and antiprogestational effects of steroids and their metabolites on the rabbit uterus. Japanese Journal of Fertility and Sterility 24:48-51 (1979)]. A single dose of test compound in sesame oil as vehicle, accompanied by a single dose of progesterone (0.3 μg in sesame oil as vehicle) was given. On the third day (dosing being day one) the animals were sacrificed. The uteri were then removed, weighed and a section was kept in 10% formalin for microslide preparation for McPhail Index [M. K. McPhail, The Journal of Physiology, 83: 10 (1934)] determination. […] Antiprogestational compounds should block the effect of progesterone on the McPhail Index, which is zero in the absence of progesterone.

[1] = total dose 0.3 (μg) of test compound + progesterone 0.3 μg, single dose into uterine horn
[2] = total dose 3 of test compound + progesterone 0.3 μg, single dose into uterine horn
[3] = total dose 30 of test compound + progesterone 0.3 μg, single dose into uterine horn

Compound	McPhail Index (progesterone (P) alone, total dose 0.3 (μg), uterine horn)	McPhail Index [1]	McPhail Index [2]	McPhail Index [3]	antiprogestational effect (in words) (0.3 μg dose, anti-McGinty test)	antiprogestational potency compared with RTI-6617-048 and RTI-6617-040 (in words) (anti-McGinty test, Table 1)
CC(=O)[C@H]1CC[C@H]2[C@@H]3CCC4=CC(=O)CC[C@]4(C)[C@H]3CC[C@]12C [Progesterone, progesterone]	2.2 +/− 0.3					
CC#C[C@]1(C(C)=O)CC[C@H]2[C@@H]3CCC4=CC(=O)CCC4=C3[C@@H](c3ccc(N(C)C)cc3)C[C@@]21C [RTI-6617-040, 11β-[4-(N,N-Dimethylamino)phenyl]-17α-(1-propynyl)-19-norpregna-4,9-diene-3,20-dione]		1.83 +/− 0.36	0.0 +/− 0.0	0.0 +/− 0.0		
CC#CC1(C(C)=O)CCC2C3CCC4=CC(=O)CCC4=C3C(c3ccc(N4CCCCC4)cc3)CC21C (stereo not drawn) [RTI-6617-041, 11β-[4-(N-piperidino)phenyl]-17α-(1-propynyl)-19-norpregna-4,9-diene-3,20-dione]		0.78 +/− 0.21	0.0 +/− 0.0	0.0 +/− 0.0	marked effect	markedly more potent
C#CC1(C(C)=O)CCC2C3CCC4=CC(=O)CCC4=C3C(c3ccc(N4CCCCC4)cc3)CC21C (stereo not drawn) [RTI-6617-048, 11β-[4-(N-Piperidino)phenyl]-17α-ethynyl-19-norpregna-4,9-diene-3,20-dione]		1.94 +/− 0.31	0.89 +/− 0.3	0.0 +/− 0.0		
